Data taken from patent US11826402B2, “Combination therapy involving antibodies against claudin 18.2 for treatment of metastatic pancreatic adenocarcinoma” (Astellas Pharma Inc., priority 2013, dated 2023).
≈ marks a conversion by molar mass, not a printed value.

Experiments:
BxPC3-LVT = experiment: Inhibition of proliferation (XTT viability assay, 4 days); format: cell-based, human
Experimental: (§1) To analyze dose-response curves of each chemotherapeutic agent, a proliferation assay was performed.
(§2) Cells were seeded in 96 well plates and after 4-6 hours gemcitabine or oxaliplatin was added in following concentrations: 1000, 500, 250, 100 and 20 ng/ml. The proliferation assay was incubated for 4 days at 37° C. and 5% CO2. 50 μl XTT complete reagent (50 parts XTT+1 part coupl. reagent mixed) was added and incubated at 37° C. Measurement of absorbance (cells plus supernatant) was done with the Tecan Safire after 3 h and 4 h. Inhibition of proliferation was calculated compared to medium values set as 100%. EC50 values for gemcitabine and oxaliplatin were calculated in the GraphPad Prism program.

DANG [1] = experiment: as above; format: cell-based, human
Experimental: as §1, §2

MiaPaCa-2-LVT [2] = experiment: as above; format: cell-based, human
Experimental: as §1, §2

DANG [3] = experiment: Cell cycle analysis; format: cell-based, human; details: 2 days
Experimental: The area of each bar is divided to indicate the percentage of cells in G0/G1, S and G2 phase.
Cells were plated in six-well plates, and 5-6 hours later chemotherapeutic agents were added for either 24 h 48 h or 3 days. Cells floating in the medium were combined with the adherent cell layer, which was trypsinized. Cells were washed. Either cell cycle analysis was started directly or cell surface staining was done before as described above. Cells are resuspended in 1 ml PBS and added to 3 ml 4% PFA. After 15 min fixation of cells at room temperature cells are pelleted and washed. For RNAse treatment cells were resuspended in 200 μl RNAse (10000 U/ml) plus 0.05% Triton X-100 and incubated for 30 min at 37° C. 1 ml PBS was added and samples were centrifuged and resuspended in 200 μl PBS/PJ 50 μg/ml. At least 30 min later samples were ready to be analyzed by flow cytometry. Cell cycle phase distribution was determined using FlowJo software to analyze DNA content histograms.

KATO-III = experiment: Apoptosis by cross-linking of IMAB362 (TUNEL assay); format: cell-based, human; details: within 18-42 hours
Experimental: (§3) The apoptotic assay based on DNA fragmentation was performed as follows. Treated cells (adherent and floating) were fixed in 70% icecold EtOH overnight. After washing, 10^6 fixed cells were incubated with terminal deoxynucleotidyl transferase enzyme (TdT) and FITC-dUTP for 90 min at 37° C. to label DNA breaks. Cells were rinsed, incubated in RNase A/propidium iodide in the dark for 30 min at room temperature to stain total DNA, then analyzed by flowvcytometry. Cell doublets and clumps were eliminated from the analysis by gating.
(§4) The magnitude of apoptosis correlates with the dose of the antibody and level of target expression on the cancer cell. Treatment with gemcitabine leads to cell cycle arrest of tumor cells followed by apoptotic cell death.

NUGC-4 = experiment: as above; format: cell-based, human; details: within 18-42 hours
Experimental: as §3, §4

[4] = tested on: LVT pancreatic cancer cell lines ectopically expressing CLDN18.2; experiment: IF staining with IMAB362 under native conditions; format: binding, human; details: 8 LVT pancreatic cancer cell lines
From the text: IF analysis of pancreatic cancer cell lines (FIGS. 16A, 16B, 16D and 16E), lentivirally transduced pancreas cell lines (FIGS. 16G-16L) and KATO-III gastric cancer control cells (FIGS. 16C and 16F) expressing CLDN18.2. […] DAPI was used to stain the nuclei. Exposure times are indicated in each panel. FIG. 16G: BxPC3-LVT; FIG. 16H: CAPAN1-LVT; FIG. 16I: DANG-LVT; FIG. 16J: MiaPaCa2-LVT; FIG. 16K: Patu8902-LVT; FIG. 16L: Suit2-LVT.

Suit2-LVT metastases = experiment: Suit2-LVT metastasis model (lung, Q-PCR and IHC); format: in vivo, mice; details: 200 μg IMAB362, day 42
Experimental: Animals were sacrificed on day 42 post graft. […] Human cells were immunohistochemically stained in tissue sections with anti-human MHC-class I antibodies. * p<0.05 (Kruskal-Wallis test). Error bars: mean±SD.
Metastasis treatments were performed with 10-12 Hsd:Athymic Nude-Foxn1^nu mice per treatment group. […] All mice were sacrificed at the same time point, as soon as the first symptoms of metastasis disease appeared (loss of weight, weakness, shortness of breath), or the first mouse died.
All their organs were macroscopically analyzed for metastasis. […] These organs were dissected into 4 equal pieces, two (lung: upper right and lower left lobe), which were stored for genomic DNA isolation. The other two pieces were formalin fixed and stored for IHC analysis (FIG. 2).
Preparation of genomic DNA and Q-PCR strategy: Genomic DNA was extracted from lung or liver tissue.
The Q-PCR strategy is based on the amplification of human DNA present in the metastases. The relative detection level of human DNA in the mouse lung sample correlates directly with the amount and/or size of the metastases.
The Q-PCR reaction was performed with primer pair #5861 5′-[…]-3′ (SEQ ID NO: 53) and #5862 5′-[…]-3′ (SEQ ID NO: 54) specifically amplifying the alpha-satellite DNA present in human chromosome 17, but not in mouse DNA. […] The curve was used to calculate (linear regression) the amount of human metastasis DNA present in mouse lung tissue. Q-PCR reactions were performed in 50 μl final volume comprised of 20 μl (200 ng) mouse lung DNA, 25 μl Sybr Green (Qiagen), 1.6 μl sense primer (10 μM) and 1.6 μl anti-sense primer and 1.8 μl H2O.
After 35 days the first mouse (isotype control group) died. Consequently, all mice were sacrificed on day 42 and lungs and livers were taken for IHC and Q-PCR analyses.
Q-PCR analysis of human DNA in the lungs of mice was repeated at least twice in triplicate. […] The surface of the positively stained cells in the lung sections was calculated using the ImageJ Program. […]

AsPC1 = experiment: IMAB362-mediated ADCC assay; format: cell-based, human; details: at least 2 donors
Panc04.03 = experiment: IMAB362-mediated ADCC assay; format: cell-based, human; details: at least 2 donors
MiaPaCa-2-LVT [5] = experiment: IMAB362-mediated CDC after cultivation with chemotherapeutic agents
Experimental: Dose response curves of 2 independent assays. MiaPaCa2-LVT were cultivated in medium, Gem (10 ng/ml) or GemOx (10 ng/ml Gem+100 ng/ml Ox) for 70 h.
CDC was performed as follows.
An additional positive control was generated at the end of the reaction by addition of 0.8% Triton X100 to a second medium control well causing total lysis. […] All samples were prepared (200 μl each) at the same time in a 96 well deepwell dilution plate. Samples were taken 3 times from each well by reverse pipetting to generate the triplicates in the assay plates.
To each well 10 μl PBS was added, except in the Triton-Lysis control wells. To each Triton-Lysis control well, 10 μl 0.8% Triton/PBS solution was added. Luciferin substrate solution was prepared (6114 μl Aqua bidest, 2496 μl HEPES (IM), 1998 μl 1×DPBS, 4992 μl D-Luciferin Stocksolution (12 mg/ml)). To each well 50 μl Luciferin substrate solution was added. […] Plates will be measured in a microplate reader. • Complement-dependent lysis was calculated using formula: Specific lysis (%)=100−[(RLUsample−RLUtriton)/(RLUHSCM−RLUtriton)×100]
Modifications for testing the pancreatic cancer cell lines: • Pancreatic cancer cells were transfected with luciferase RNA using optimized conditions.

[6] = Homo sapiens, 96 h, 4 days exposure

| Compound | sensitivity of cells to the agent (BxPC3-LVT) | IC50 (BxPC3-LVT; [6]) | sensitivity of cells to the agent (DANG [1]) | IC50 (DANG [1]; [6]) | sensitivity of cells to the agent (MiaPaCa-2-LVT [2]) | IC50 (MiaPaCa-2-LVT [2]; [6]) | cell cycle effect (DANG [3]) | induction of apoptosis (KATO-III) | induction of apoptosis (NUGC-4) | membrane staining (IF, native staining protocol) [4] | surface of MHC-I stained cells in lung sections (IHC) (Suit2-LVT metastases; versus PBS) | percentage of human DNA in lungs (Q-PCR) (Suit2-LVT metastases; versus PBS and isotype control) | surface of MHC-I stained cells in lung sections (IHC) (Suit2-LVT metastases; versus isotype control antibody) | ADCC EC50 (AsPC1) | ADCC Max. lysis (AsPC1) | ADCC EC50 (Panc04.03) | max lyses (CDC), Gem treated versus medium (MiaPaCa-2-LVT [5]; MiaPaCa-2-LVT treated with Gem) | EC50 for IMAB362 specific lyses (CDC) (MiaPaCa-2-LVT [5]; MiaPaCa-2-LVT treated with Gem (10 ng/ml, 70 h)) | EC50 for IMAB362 specific lyses (CDC) (MiaPaCa-2-LVT [5]; medium cultivated MiaPaCa-2-LVT) |
| --- | --- | --- | --- | --- | --- | --- | --- | --- | --- | --- | --- | --- | --- | --- | --- | --- | --- | --- | --- |
| Nc1ccn([C@@H]2O[C@H](CO)[C@@H](O)C2(F)F)c(=O)n1 [gemcitabine, 4-amino-1-(2-deoxy-2,2-difluoro-β-D-erythro-pentofuranosyl)pyrimidin-2(1H)-one] | very sensitive | ~0.002 µg/mL (≈ 7.6 nM) | very sensitive | ~0.001 µg/mL (≈ 3.8 nM) | less sensitive | 0.05 µg/mL (≈ 190 nM) | cell cycle arrest of cells in S-Phase | – | – | – | – | – | – | – | – | – | – | – | – |
| IMAB362: chimeric IgG1 antibody directed against CLDN18.2, developed by Ganymed Pharmaceuticals AG | – | – | – | – | – | – | – | induces direct apoptosis | induces direct apoptosis | clear membrane staining | significant inhibition (P<0.05) | significant decrease (P<0.05) | not significant | n.m.. | n.m. | n.m. | increase | 4.677 µg/mL | 7.665 µg/mL |
